Laboratory results taken from publication PMC7729925, “Selective hepatitis B and D virus entry inhibitors from the group of pentacyclic lupane-type betulin-derived triterpenoids” (Scientific Reports, 2020).

What was measured:
HDV = test: in vitro HDV infection of NTCP-HepG2 cells; format: cell-based; conditions: co-incubation with 0.5 µM, set to 0% infection rate
Description: At day 9 post infection, cells were fixed and an immunostaining against the HDAg was performed, as a marker of HDV infection. The number of infected cells per well was determined by fluorescence microscopy. NTCP-HepG2 cells incubated without inhibitor were used as control (set to 100% infection rate). Infection experiments in the presence of 0.5 µM myr-preS1_2-48 peptide served as control for the 0% infection rate. Scale bars: 100 µm. Data represent means ± SEM of three independent experiments each with triplicate determinations (n = 9). […] Data were combined from two independent experiments, each with quadruplicate determinations (n = 8). (h) Cell viability was determined with an LDH cytotoxicity assay. HepG2 cells treated with HGM w/o test compound were used as positive control and lysed cells as negative control.
For infection experiments NTCP-HepG2 cells were cultured in 96-well plates in Hepatocyte Growth Medium (HGM) consisting of William’s E Medium (Thermo Fisher Scientific) containing 2% bovine serum albumin (BSA, Roth), 2 mM L-Glutamin (Thermo Fisher Scientific), 100 µg/ml gentamicin (Thermo Fisher Scientific), 10 nM dexamethasone (Sigma-Aldrich), 1 mM sodium pyruvate (Thermo Fisher Scientific), 1 × Insulin-Transferrin-Selen (Thermo Fisher Scientific), 2% DMSO (Merck, Darmstadt, Germany), 4% polyethylene glycol (Sigma-Aldrich) and 2 µg/ml doxycycline (Sigma-Aldrich) as reported. Subsequently, cells were washed with DMEM and cultured in HGM supplemented with 2% DMSO, 2% BSA and 2 µg/ml doxycycline. […] HDV stock solved in 20 µl HGM per well was added for infection and cells were incubated for 6 h with final concentration of 700 genome equivalents/cell of HDV particles. HDV production was done in vitro as described before[55],[56]. RT-qPCR was performed to determine genome equivalents. Every three days medium was changed until cells were fixed at 9 days post infection with 3% paraformaldehyde (Sigma-Aldrich) in PBS, for 30 min at room temperature (RT). Cells were permeabilized with 0.2% Triton X 100 (Roth) in PBS for 30 min at RT, and blocked by incubation with 5% bovine serum albumin (Roth) in PBS, for 30 min at RT. Then, cells were immunostained with purified human anti-HDV-positive serum at 37 °C for 1 h (1:400 dilution). Goat anti-human IgG secondary antibody coupled to Alexa Fluor fluorophore (1:400 dilution, Thermo Fisher Scientific) was added for 1 h at 37 °C for detection of Hepatitis Delta antigen (HDAg) as described before.

HBV/HDV = test system: HBV/HDV; design: method as in PMID 15650187; conditions: cited from earlier work

CCCCCCCCCCCCCC(=O)NCC(=O)N[C@@H](CCC(N)=O)C(=O)N[C@@H](CC(N)=O)C(=O)N[C@@H](CC(C)C)C(=O)N[C@@H](CO)C(=O)N[C@H](C(=O)N[C@@H](CO)C(=O)N[C@@H](CC(N)=O)C(=O)N1CCC[C@H]1C(=O)N[C@@H](CC(C)C)C(=O)NCC(=O)N[C@@H](Cc1ccccc1)C(=O)N[C@@H](Cc1ccccc1)C(=O)N1CCC[C@H]1C(=O)N[C@@H](CC(=O)O)C(=O)N[C@@H](Cc1c[nH]cn1)C(=O)N[C@@H](CCC(N)=O)C(=O)N[C@@H](CC(C)C)C(=O)N[C@@H](CC(=O)O)C(=O)N1CCC[C@H]1C(=O)N[C@@H](C)C(=O)N[C@@H](Cc1ccccc1)C(=O)N[C@@H](CCCNC(=N)N)C(=O)N[C@@H](C)C(=O)N[C@@H](CC(N)=O)C(=O)N[C@H](C(=O)N[C@@H](C)C(=O)N[C@@H](CC(N)=O)C(=O)N1CCC[C@H]1C(=O)N[C@@H](CC(=O)O)C(=O)N[C@@H](Cc1c[nH]c2ccccc12)C(=O)N[C@@H](CC(=O)O)C(=O)N[C@@H](Cc1ccccc1)C(=O)N[C@@H](CC(N)=O)C(=O)N1CCC[C@H]1C(=O)N[C@@H](CC(N)=O)C(=O)N[C@@H](CCCCN)C(=O)N[C@@H](CC(=O)O)C(=O)N[C@H](C(=O)N[C@@H](Cc1c[nH]c2ccccc12)C(=O)N1CCC[C@H]1C(=O)N[C@@H](CC(=O)O)C(=O)N[C@@H](C)C(=O)N[C@@H](CC(N)=O)C(=O)N[C@@H](CCCCN)C(=O)N[C@H](C(=O)NCC(N)=O)C(C)C)[C@@H](C)O)[C@@H](C)O)[C@@H](C)O [myr-preS1_2-48 lipopeptide, reference compound]
in vitro HDV infection with peptide control (HDV): completely abolished infection | IC50 of in vitro HBV/HDV infection (HBV/HDV): low nanomolar range
